Columns and labels:
[1] = Liposome 90° light scattering, POPC liposomes; assay type: binding; conditions: pH 7.4
Excerpt: Thus, we investigated the interaction of Hsp70 with palmitoyl-oleoyl-phosphatidylcholine (POPC) large unilamellar vesicles (LUVs) containing various membrane-associated anionic lipids, i.e. palmitoyl-oleoyl-phosphatidylserine (POPS; primarily in plasma membrane), cardiolipin (primarily mitochondrial) and BMP (primarily in late endosomes/lysosomes). Taking into account the increasingly acidic milieu of the endo-lysosomal compartment upon maturation to lysosomes, we compared the protein-lipid interactions in neutral (pH 7.4) and acidic (pH 6.0) conditions. […] As reported earlier for POPS, all negatively charged lipids enhanced the binding of rHsp70 to the liposomes at neutral pH approximately 4-fold irrespective of the charge density on the liposome surface (ranging from −1 to −2).
The tryptophan fluorescence spectra (RFI) and liposome 90° light scattering (RSI) were analyzed in a HEPES buffer (20 mM HEPES, 0.1 mM EDTA, pH 7.4 or 6.0 as indicated) employing LUVs consisting of indicated lipids essentially as described in the art. For the RFI, LUVs were added in 10 μM aliquots and spectra recorded after a 20 min stabilization period. For the RSI, recombinant proteins were added in 0.12 nmol aliquots.

[2] = target: T1, ASM (Mus musculus, UniProt Q04519); assay: ASM activity in WT-MEFs; assay type: cell-based, murine; conditions: 300 nM (cytoprotective concentration)
T1 construct: endogenous in cells; host or cells: immortalized wild-type murine embryonic fibroblasts (WT-MEFs)
T1 sequence (Q04519 45-627): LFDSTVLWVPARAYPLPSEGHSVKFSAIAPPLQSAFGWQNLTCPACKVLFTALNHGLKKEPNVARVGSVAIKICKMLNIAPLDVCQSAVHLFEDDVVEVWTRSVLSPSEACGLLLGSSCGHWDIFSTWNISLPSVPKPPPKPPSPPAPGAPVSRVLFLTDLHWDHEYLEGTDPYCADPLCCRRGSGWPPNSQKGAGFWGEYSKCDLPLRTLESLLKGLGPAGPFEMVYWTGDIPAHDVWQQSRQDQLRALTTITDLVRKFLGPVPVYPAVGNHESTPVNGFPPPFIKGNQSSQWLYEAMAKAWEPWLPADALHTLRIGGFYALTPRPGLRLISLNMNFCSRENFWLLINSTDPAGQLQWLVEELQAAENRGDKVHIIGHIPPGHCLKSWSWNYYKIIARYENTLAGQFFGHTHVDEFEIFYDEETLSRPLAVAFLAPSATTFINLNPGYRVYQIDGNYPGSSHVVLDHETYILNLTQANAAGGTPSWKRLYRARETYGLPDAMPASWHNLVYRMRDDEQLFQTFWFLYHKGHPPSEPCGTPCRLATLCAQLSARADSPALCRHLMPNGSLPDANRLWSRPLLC
Excerpt: BMP binds ASM with high affinity and stimulates its ability to hydrolyze sphingomyelin to ceramide and phosphorylcholine. […] In order to test whether ASM is responsible for the lysosome stabilizing effect we treated the cells with desipramine, a well characterized pharmacological ASM inhibitor. […] It should be noted that akin to rHsp70, also rASM localized to the lysosomes.
WT- and Hsp70-MEFs were generated, immortalized and maintained as described in the art. Human NPDA fibroblasts (83/24) originate from a skin biopsy of a patient with hepatosplenomegaly. […] The photo-oxidation-induced loss of the lysosomal pH-gradient and leakage of acridine orange to the cytosol from individual lysosomes was quantified visually as “loss of red dots” in U2-O—S cells and as a decrease in red and an increase in green fluorescence by Zeiss LSM DUO Software in fibroblasts. The total and cytoplasmic (digitonin-extracted) cathepsin activities were measured in digitonin-treated samples using zFR-AFC (Enzyme System Products) probe as described in the art. The tryptophan fluorescence spectra and liposome 90° light scattering were analyzed in a HEPES buffer (20 mM HEPES, 0.1 mM EDTA, pH as indicated) essentially as described in the art. […] Apoptosis-like cell death and lysosomal membrane permeabilization were analyzed essentially as described in the art. […]

[3] = tested on: primary fibroblasts from Mucopolysaccharidosis type IVA patient; assay: Lysosomal cross-sectional area, laser confocal microscopy, MPS IVA fibroblasts; assay type: cell-based, human; conditions: Alexa Fluor 488 labelled, added for 48 h; GM00958
Method: FIG. 9: Test of rhHSP70 in non-sphingolipidosis. rhHSP70 labelled with Alexa Fluor 488 (for visualization of uptake) was added for 48 h to primary fibroblasts from Mucopolysaccharidosis type IVA (aka (Morbus) Morquio type IVA) patient (Coriell Cell Repository ID: GM00958). Read-out: lysosomal cross-sectional area (Primary cellular pathology), performed by laser confocal microscopy.

rHsp70: recombinant (human) heat shock protein 70; in some tests labelled with Alexa Fluor 488
binding (relative change in 90° light scattering) [1]: very weak binding
ASM activity [2]: increased the ASM activity to the level comparable to that in Hsp70-MEFs
lysosomal cross-sectional area (primary cellular pathology) [3]: effectively reverts the lysosomal primary pathology

From US10532085B2, “Methods for increasing intracellular activity of Hsp70” (Orphazyme A/S, priority 2010, dated 2020)
